Reference: PubChem BioAssay (NCI)
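96-well plates; 48 h exposure; 5 concentrations. Endpoints by linear interpolation between flanking doses. Not reached: highest tested concentration assigned. GI50: concentration for 50% inhibition of growth. Definition used: TGI = concentration required for complete inhibition of growth.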 Where a SMILES comes first, the peptide text is derived from it. The star is where a group is joined. Fmoc = O=C(OCC1c2ccccc2-c2ccccc21)*; Boc = CC(C)(C)OC(=O)*

How the values were obtained:
Test in all cases: DTP human tumour cell line panel, 48 h
A498 renal = system: A498 renal
DU-145 prostate = system: DU-145 prostate
HCT-116 colon = system: HCT-116 colon
HL-60(TB) leukemia = system: HL-60(TB) leukemia
K-562 leukemia = system: K-562 leukemia
LOX IMVI melanoma = system: LOX IMVI melanoma
M14 melanoma = system: M14 melanoma
MALME-3M melanoma = system: MALME-3M melanoma
MCF7 breast = system: MCF7 breast
MOLT-4 leukemia = system: MOLT-4 leukemia
PC-3 prostate = system: PC-3 prostate
SNB-75 CNS = system: SNB-75 CNS
SW-620 colon = system: SW-620 colon
U251 CNS = system: U251 CNS
UACC-257 melanoma = system: UACC-257 melanoma
UACC-62 melanoma = system: UACC-62 melanoma
T-47D breast = system: T-47D breast
NCI-H522 lung = system: NCI-H522 lung

Structure (SMILES)	TGI (A498 renal) [µM]	TGI (DU-145 prostate) [µM]	TGI (HCT-116 colon) [µM]	TGI (HL-60(TB) leukemia) [µM]	TGI (K-562 leukemia) [µM]	TGI (LOX IMVI melanoma) [µM]	TGI (M14 melanoma) [µM]	TGI (MALME-3M melanoma) [µM]	TGI (MCF7 breast) [µM]	TGI (MOLT-4 leukemia) [µM]	TGI (PC-3 prostate) [µM]	TGI (SNB-75 CNS) [µM]	TGI (SW-620 colon) [µM]	TGI (U251 CNS) [µM]	TGI (UACC-257 melanoma) [µM]	TGI (UACC-62 melanoma) [µM]	GI50 (LOX IMVI melanoma) [µM]	TGI (T-47D breast) [µM]	GI50 (UACC-257 melanoma) [µM]	TGI (NCI-H522 lung) [µM]
CC(=O)Oc1cc2c(n(C)c1=O)CCC2	> 100	> 100	> 100	> 100	> 100	> 100	> 100	> 100	> 100	> 100	> 100	> 100	> 100	> 100	> 100					
O=Cc1ccc2[nH]c(=O)oc2c1	> 100	> 100	> 100	> 100	> 100	> 100	> 100	> 100	> 100	> 100	> 100		> 100	> 100	> 100	> 100				
CC(=O)Oc1ccc2c3c1[C@@H]1O[C@@H]1c1cccc(c1-3)[C@@H]1O[C@H]21	6.57	4.18	2.87	4.87	> 100	2.02	3.27		> 100	> 100		3.07			> 100	3.44	0.65	5.42	2.75	
Cc1ccc(C(=O)C(C)N)cc1C (stereo unspecified)	> 100		> 100		> 100	> 100	> 100	> 100		> 100		> 100	> 100	> 100	> 100	> 100				> 100
CCCCn1c2c(n(CCCC)c1=[Se])-c1c(n(CCCC)c(=[Se])n1CCCC)S[Se][Se]S2	> 100	63.4	> 56.2		> 66.9	30.1	> 59.9	15.4	> 69	> 90.6	34.7	44.7	19.6	32.2	> 100	40.7				3.34
Cc1cccc2c(=O)c3c(O)cc4c(c3n(C)c12)C=CC(C)(C)O4	> 100	> 100	> 100	> 100	48	> 100	> 100	> 100	> 100	> 100	> 100	> 100	> 100	> 100	> 100	> 100				> 100
COc1cc(C2SC(N)=Nc3c2c(C)nn3C(=O)c2ccc(Cl)cc2)ccc1O (stereo unspecified)		> 10	> 10	> 10	> 10	> 10	> 10	> 10	> 10	> 10	> 10	> 10	> 10	> 10	> 10	> 10		> 10		> 10
COc1ccc(-c2cc(-c3ccccc3)nc(N)n2)c(O)c1	> 100		> 100	> 20.6	> 22.9	> 100	> 100	> 100	> 100	> 100	> 100	> 100	> 100	> 100	> 100	> 100		> 100		> 100
COC1=CC(=O)C2C(C1=O)[C@@H]1c3ccccc3OC[C@H]21 (stereo partly specified)	> 100		> 100	> 100	> 100	> 100	> 100	> 100		> 100		> 100	> 100	> 100						> 100
C#CC1(O)CC(c2ccccc2)N(C)C(c2ccccc2)C1 (stereo unspecified)	> 100		32.4	> 100	> 100	> 100	> 100	> 100		> 100		> 100	> 100	> 100	> 100	> 100				> 100
COC(=O)/C=C/N1CC1		> 10	> 10	> 10	> 10		> 10	> 10	> 10	> 10	> 10	> 10		> 10	> 10	> 10		> 10		> 10
CCCC(=O)Oc1cc(OC(=O)CCC)c2c(C)cc(=O)oc2c1	> 100	> 100	> 100		> 100	> 100	> 100	> 100	> 100	> 100	> 100	> 100	> 100	> 100	> 100	> 100				
Cc1nc2c(s/c(=N\N)n2-c2ccccc2)c(=O)n1C	> 100		> 100	> 100	> 100	> 100	> 100			> 100		> 100	> 100	> 100	> 100	> 100				> 100
CN1C(=O)C(O)C[C@@H]1c1ccc(F)cc1 (stereo partly specified)		> 100	> 100	> 100		> 100	> 100		> 100	> 100	> 100			> 100	> 100	> 100		> 100		
COc1cc(OC)cc(Oc2nc3c(N)cc(C(F)(F)F)cc3nc2-c2ccccc2)c1	> 100		> 100	52.4	31.4	45.9	> 100		99	81.1	> 100	> 100	> 100	> 100	> 100	> 100		8.91		
OCC1(CNc2cc(Cl)ncn2)CCC1	> 100	> 100	> 100	> 100	> 100	> 100		> 100	> 100	> 100	> 100	> 100	> 100	> 100	> 100					> 100
O=C(CC(C(=O)c1cccs1)c1ccccc1)c1ccccc1O (stereo unspecified)		> 100	> 100	> 44	46.6	> 47.4	> 100		> 38.7	> 38.4	> 100	> 55.7	> 100	> 30.2	> 100	> 44.6		> 40		10.4
CC1CC/C(=C\c2ccc(F)cc2)C2=C1C(c1ccc(F)cc1)n1c(s/c(=C\c3ccc(Cl)cc3)c1=O)=N2 (stereo unspecified)	> 100	> 100	> 100	> 100	> 100	> 100	> 100		> 100	> 100	> 100		> 100	> 100	> 100	> 100				
CC1OC(n2cnc3c(N)nc(Cl)nc32)C(C)(O)C1O (stereo unspecified)	> 25	> 25	> 25	> 25	> 25	> 25	> 25	> 25	> 25	> 25		15.2	> 25		> 25	> 25		> 25		> 25
COc1cc2c(cc1OC)C(=O)N1CCCC1C(=O)S2 (stereo unspecified)			> 100	> 100	> 100	> 100	> 100	> 100		> 100			> 100	> 100	> 100	> 100				> 100
O[C@H]1[C@@H]2OC[C@@H](O)[C@H](OCc3ccccc3)[C@@](COCc3ccccc3)(O2)[C@@H]1OCc1ccccc1	31.4	35.5	47.5	68.6	67	32.7	36.3	28.6	39.6	> 100	28.3	18.7	33.1	30.4	28.7	23.5				27.7
Cc1cc2nc3c(C#N)c4c(c(Nc5ccc(Cl)cc5)n3c2cc1C)CCC4	> 100	75.1	30.4			32.8		55		> 100		> 100	34	32.9	76.6			86.3		26.5
CSc1nc(Cl)c2c(n1)Sc1nc3ccccc3n1N=C2	> 100	> 100	> 100		50	33.5	46.3	68.2		63.2	48	71.5	29.3	> 100	> 100	84.3		57.2		39.4
O=c1c2cc([N+](=O)[O-])cnc2sn1-c1ccc(Br)cc1		> 100	59.3	80.7		52.5	> 100	57	> 100	90.3	> 100	> 100	> 100	> 100	> 100	> 100		48.1		22.6
CC1(C)O[C@@H](CP(c2ccc3ccccc3c2)c2ccc3ccccc3c2)[C@H](CP(c2ccc3ccccc3c2)c2ccc3ccccc3c2)O1		> 100	> 100		> 100	> 100	> 100		> 100	> 100	> 100	> 100	> 100	> 100	> 100	> 100		> 100		> 100
CC(C)(C)OC(=O)NCCCCC(NC(=O)C(Cc1c[nH]c2ccccc12)NC(=O)OCC1c2ccccc2-c2ccccc21)C(=O)O (stereo unspecified) (Fmoc-Trp-Lys(Boc)-OH; configuration not given here)		> 100	> 100	34	38.5	46.2	> 100	> 100	> 100	48.2	> 100	> 100	> 100	31.1	> 100	42.4		> 100		
O=c1[nH]c(Br)nc2c(N3CCCCC3)c[nH]c12	> 100		> 100	> 100	> 100	> 100	> 100	> 100		> 100		> 100	> 100	> 100	> 100	> 100				81.8
CC(C)[Si](OC1=CCC[C@H]2NC(=O)[C@@H](Cc3ccc([N+](=O)[O-])cc3)[C@@]12C)(C(C)C)C(C)C		21.3	12.7	24.4	13.7	15.8	26.2	43.4	10.7	> 100	12	23.8			17.8	27.7		18.4		17.9
COc1cccc(-c2cc(=O)c3cc(N4CCCC4)ccc3[nH]2)c1		< 0.001	0.0348	< 0.001	> 8.09	0.00131	> 10	9.53	> 4.67	> 10	> 10	> 10	> 10		> 10	> 10		> 10		< 0.001
C[C@]12CC[C@H]3[C@@H](CCC4=CC(=O)CC[C@@]43C)[C@@H]1CC[C@@H]2OC(=O)c1cccc2c(=O)c3ccccc3[nH]c12	> 100				80	62.1	> 100	> 100	> 100	89.2	> 100	> 100	> 100	> 100	> 100	> 100		> 100		> 100
